# Measured values as given in patent US6649654B1, “Methods for identifying and using IKK inhibitors” (The Regents of the University of California, priority 1999, dated 2003).
# Assays:
# [1] = target: T1, JNK1 (Homo sapiens, UniProt P45983); test: In vitro JNK1 kinase activity; type: biochemical; settings: in vitro incubation with up to 60 μM
# T1 construct: Endogenous IKK, HA-tagged IKKα, endogenous JNK1, and p38 activities were determined; endogenous in cells
# Experimental: (§1) Cell lysates were incubated with anti-IKKα (Pharmingen), anti-HA (12CA5; Pharmingen), anti-JNK1 (333.8; Pharmingen), or anti-p38 (New England Biolabs) for 2 hours. Then, 15 μl protein A-Sepharose (Sigma) were added and the mixture was allowed to incubate for 1 hour. After extensive washing, kinase assays were performed as known in the art (See e.g., DiDonato et al., Nature 388:548-554 [1997]). Endogenous IKK, HA-tagged IKKα, endogenous JNK1, and p38 activities were determined with GST-1κBα(1-54), GST-c-Jun(1-79), and GST-ATF2 as substrates.
# (§2) Endogenous IKK was immunoprecipitated from TNFα-stimulated HeLa cells and the kinase activity determined in the presence of different concentrations of PGA1 (the results of which are shown in FIG. 2B) or 15dPGJ2 (the results of which are shown in FIG. 2C).
# [2] = target: T2, IKKβ(C179A) (Homo sapiens, UniProt O14920, C179A); test: IKKβ(C179A) coexpressed with NIK in HeLa cells, kinase activity; type: cell-based; settings: HeLa cells coexpressing NIK, treated 2 hours
# T2 sequence (O14920 1-756 C179A): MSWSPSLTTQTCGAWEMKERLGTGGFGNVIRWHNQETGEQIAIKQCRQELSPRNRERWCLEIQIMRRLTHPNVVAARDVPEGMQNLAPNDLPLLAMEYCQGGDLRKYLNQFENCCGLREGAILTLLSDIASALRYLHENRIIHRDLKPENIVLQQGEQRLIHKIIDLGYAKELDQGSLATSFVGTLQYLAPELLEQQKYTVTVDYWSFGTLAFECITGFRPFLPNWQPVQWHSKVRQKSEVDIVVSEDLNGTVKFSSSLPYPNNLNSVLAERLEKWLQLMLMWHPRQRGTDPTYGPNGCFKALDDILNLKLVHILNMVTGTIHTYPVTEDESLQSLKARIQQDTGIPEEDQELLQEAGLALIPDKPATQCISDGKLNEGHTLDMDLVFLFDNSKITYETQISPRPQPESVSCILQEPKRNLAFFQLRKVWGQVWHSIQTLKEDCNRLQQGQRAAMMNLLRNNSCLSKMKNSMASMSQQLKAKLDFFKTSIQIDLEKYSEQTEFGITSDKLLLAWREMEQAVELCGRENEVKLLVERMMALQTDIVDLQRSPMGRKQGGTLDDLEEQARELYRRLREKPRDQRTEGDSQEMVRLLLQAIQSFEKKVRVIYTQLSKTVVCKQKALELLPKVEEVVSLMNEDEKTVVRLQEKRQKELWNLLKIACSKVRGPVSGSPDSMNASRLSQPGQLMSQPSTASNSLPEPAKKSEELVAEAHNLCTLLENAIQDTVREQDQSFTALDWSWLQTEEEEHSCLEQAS
# Experimental: In an experiment to determine whether this cysteine is critical for sensitivity to cyPG, cysteine was replaced with an alanine using site-directed mutagenesis. In these experiments, HeLa cells were transiently transfected with expression vectors for IKKβ(WT) or IKKβ(C179A) with or without a NIK expression vector. After 16 hours, NIK transfected cells were treated for 2 hours with 15dPGJ2. Kinase activity (KA) and expression (IB:HA) were subsequently determined. Thus, wild-type (WT) IKKβ and mutant IKKβ (i.e., IKKβ(C179A)) were coexpressed with NIK in HeLa cells and their sensitivity to 15dPGJ2 examined. While both constructs were equally responsive to NIK, resulting in similar levels of kinase activity, the IKKβ(C179A) mutant was resistant to inhibitor (See, FIG. 6C).
# [3] = target: p38 (Homo sapiens, UniProt Q16539); test: In vitro p38 kinase activity; type: biochemical; parameters: Endogenous IKK, HA-tagged IKKα, endogenous JNK1, and p38 activities were determined; endogenous in cells; settings: in vitro incubation with up to 60 μM
# Experimental: as §1, §2
# [4] = target: T3, IKKα (Homo sapiens, UniProt O14920+O15111); test: NIK-induced HA-tagged IKKα associated kinase activity in COS cells; type: cell-based; settings: PGA1 added immediately after or 18 hours after transfection
# T3 construct: expressed in transfected cells; host or cells: COS
# Experimental: (§3) Cells used in the experiments described herein were cultured in either RPMI 1640 (Jurkat cells) or DMEM (HeLa and COS cells), supplemented with 10% FBS and antibiotics. Cells were stimulated with either 25 ng/ml TPA, 20 ng/ml recombinant TNFα, or 10 ng/ml interleukin 1β (Sigma). PGA1, 15dPGJ2, T×B2, LTB4, AA and other PGs (Cayman) dissolved in ethanol were used as well, as known in the art (See e.g., Rossi et al., 94:746-750 [1997]). Controls received equal amounts of ethanol. Transfections were performed using Lipofectamine Plus (GIBCO) for HeLa and COS cells and DEAE-dextran (Sigma) for Jurkat cells. Xpress-tagged NIK, Xpress-tagged MEKK1, HA-tagged IKKα, and HA-tagged IKKβ were also used (See e.g., Zandi et al., Science 281:1360-1363 [1998]; and Delhase et al., Science 284:309-313 [1999]). COX2 and cPLA2 expression vectors were obtained from Dr. L. Feng (See also, Hirose et al., J. Am. Soc. Nephrol., 9:408-416 [1998]). PGD synthase was cloned from HT29 colon carcinoma cell line cDNA by PCR and subcloned into a pCDNA3 vector. […]
# (§4) Cell lysates were incubated with anti-IKKα (Pharmingen), anti-HA (12CA5; Pharmingen), anti-JNK1 (333.8; Pharmingen), or anti-p38 (New England Biolabs) for 2 hours. […] Endogenous IKK, HA-tagged IKKα, endogenous JNK1, and p38 activities were determined with GST-1κBα(1-54), GST-c-Jun(1-79), and GST-ATF2 as substrates.
# [5] = target: IKK (Homo sapiens, UniProt O14920+O15111); test: MEKK1-induced IKK activity in Jurkat cells; type: cell-based; settings: data not shown
# Experimental: as §3, §4
# T3 sequence (O15111 whole entry): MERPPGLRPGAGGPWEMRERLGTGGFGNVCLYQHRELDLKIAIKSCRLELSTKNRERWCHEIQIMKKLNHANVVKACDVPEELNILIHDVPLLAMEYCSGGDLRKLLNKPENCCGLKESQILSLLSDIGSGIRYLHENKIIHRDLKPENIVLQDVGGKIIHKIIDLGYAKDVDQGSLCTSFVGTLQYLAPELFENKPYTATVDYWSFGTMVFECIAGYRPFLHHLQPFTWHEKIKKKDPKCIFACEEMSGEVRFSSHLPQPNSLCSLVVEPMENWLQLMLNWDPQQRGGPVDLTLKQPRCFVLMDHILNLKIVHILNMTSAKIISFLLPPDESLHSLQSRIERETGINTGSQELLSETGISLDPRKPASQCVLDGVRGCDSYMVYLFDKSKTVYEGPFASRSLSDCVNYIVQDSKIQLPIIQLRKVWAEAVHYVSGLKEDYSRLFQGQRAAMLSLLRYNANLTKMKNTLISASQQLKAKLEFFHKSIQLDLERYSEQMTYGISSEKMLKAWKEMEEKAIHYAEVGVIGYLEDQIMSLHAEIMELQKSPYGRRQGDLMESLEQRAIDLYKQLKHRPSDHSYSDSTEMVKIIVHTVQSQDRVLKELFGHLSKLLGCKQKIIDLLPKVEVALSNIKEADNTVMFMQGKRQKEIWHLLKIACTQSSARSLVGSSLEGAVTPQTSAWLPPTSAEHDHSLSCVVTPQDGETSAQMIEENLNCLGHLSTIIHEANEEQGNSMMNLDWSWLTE
# T3 sequence (O14920 whole entry): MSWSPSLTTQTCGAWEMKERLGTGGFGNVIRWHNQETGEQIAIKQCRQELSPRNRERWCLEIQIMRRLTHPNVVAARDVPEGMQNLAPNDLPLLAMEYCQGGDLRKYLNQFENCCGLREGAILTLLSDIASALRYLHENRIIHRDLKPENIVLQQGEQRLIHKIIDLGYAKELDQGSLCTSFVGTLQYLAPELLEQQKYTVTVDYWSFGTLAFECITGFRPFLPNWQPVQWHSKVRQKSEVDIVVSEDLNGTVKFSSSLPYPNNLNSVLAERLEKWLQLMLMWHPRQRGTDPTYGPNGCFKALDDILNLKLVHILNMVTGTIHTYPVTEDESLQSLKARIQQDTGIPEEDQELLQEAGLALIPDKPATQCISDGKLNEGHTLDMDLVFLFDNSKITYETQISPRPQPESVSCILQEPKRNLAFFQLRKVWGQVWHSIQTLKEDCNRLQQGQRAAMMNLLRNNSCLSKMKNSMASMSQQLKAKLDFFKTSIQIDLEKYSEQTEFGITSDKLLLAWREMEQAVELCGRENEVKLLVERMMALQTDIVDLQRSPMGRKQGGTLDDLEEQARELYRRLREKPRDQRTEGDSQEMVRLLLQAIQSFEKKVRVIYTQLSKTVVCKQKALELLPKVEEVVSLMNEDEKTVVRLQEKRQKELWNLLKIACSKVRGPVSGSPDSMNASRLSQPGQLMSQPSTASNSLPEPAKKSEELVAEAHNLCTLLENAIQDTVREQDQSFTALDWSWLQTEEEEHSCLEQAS
# T3 sequence (Q9Y6K9 whole entry partner): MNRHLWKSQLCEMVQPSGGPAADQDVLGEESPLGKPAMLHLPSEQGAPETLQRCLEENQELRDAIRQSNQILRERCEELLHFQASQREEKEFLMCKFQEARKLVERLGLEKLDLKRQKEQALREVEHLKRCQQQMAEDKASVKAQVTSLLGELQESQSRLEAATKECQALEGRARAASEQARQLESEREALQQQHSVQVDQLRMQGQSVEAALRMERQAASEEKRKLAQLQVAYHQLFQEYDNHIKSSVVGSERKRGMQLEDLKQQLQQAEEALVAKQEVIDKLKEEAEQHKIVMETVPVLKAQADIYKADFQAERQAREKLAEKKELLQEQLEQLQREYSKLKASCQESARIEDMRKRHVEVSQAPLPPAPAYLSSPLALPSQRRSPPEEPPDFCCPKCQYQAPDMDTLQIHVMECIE
# T1 sequence (P45983 whole entry): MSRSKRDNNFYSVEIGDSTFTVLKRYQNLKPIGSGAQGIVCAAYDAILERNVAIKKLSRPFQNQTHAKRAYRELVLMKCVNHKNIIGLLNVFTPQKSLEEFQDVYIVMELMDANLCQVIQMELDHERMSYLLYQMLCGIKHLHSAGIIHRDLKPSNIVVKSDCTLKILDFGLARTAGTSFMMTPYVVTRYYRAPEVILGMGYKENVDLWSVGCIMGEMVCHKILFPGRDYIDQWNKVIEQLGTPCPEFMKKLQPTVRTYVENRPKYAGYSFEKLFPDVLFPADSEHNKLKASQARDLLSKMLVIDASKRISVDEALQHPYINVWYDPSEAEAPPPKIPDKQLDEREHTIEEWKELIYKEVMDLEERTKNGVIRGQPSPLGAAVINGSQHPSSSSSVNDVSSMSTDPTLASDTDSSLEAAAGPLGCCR
# IKK, sequence (O14920 whole entry): as the sequence (O14920 whole entry) above
# IKK, sequence (O15111 whole entry): as the sequence (O15111 whole entry) above
# IKK, sequence (Q9Y6K9 whole entry partner): as the sequence (Q9Y6K9 whole entry partner) above
# p38, sequence (Q16539 whole entry): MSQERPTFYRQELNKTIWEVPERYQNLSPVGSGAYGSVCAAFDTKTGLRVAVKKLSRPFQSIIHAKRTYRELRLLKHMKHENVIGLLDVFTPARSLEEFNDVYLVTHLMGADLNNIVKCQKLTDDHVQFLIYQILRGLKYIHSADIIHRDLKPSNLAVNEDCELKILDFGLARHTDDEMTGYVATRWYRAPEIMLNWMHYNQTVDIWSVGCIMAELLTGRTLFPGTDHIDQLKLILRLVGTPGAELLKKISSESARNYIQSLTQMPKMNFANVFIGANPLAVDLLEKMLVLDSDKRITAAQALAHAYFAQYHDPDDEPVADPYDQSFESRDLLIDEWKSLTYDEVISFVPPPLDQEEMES
inhibition of JNK1 activity in vitro [1],sensitivity of IKKβ(C179A) kinase activity to inhibitor [2],inhibition of p38 activity in vitro [3],effect on NIK-induced IKK activity (HA-IKKα) [4],effect on MEKK1-induced IKK activity [5],Structure (SMILES)
No significant inhibition,resistant,No significant inhibition,–,–,"CCCCC/C=C/C=C1/C(=O)C=C[C@@H]1C/C=C\CCCC(=O)O [15dPGJ2, 15-deoxy-Δ^12-14-PGJ2]"
–,–,–,inhibited,inhibited,"CCCCC[C@H](O)/C=C/[C@H]1C=CC(=O)C1CCCCCCC(=O)O (some centres unmarked) [PGA1, prostaglandin A1]"
